We go through 18 molecules from patent US12227482B2, “Compounds and compositions for the treatment of cancer” (The Regents of the University of California, priority 2016, dated 2025).

What all share (type): cell-based
The subject of assay [1] is A549 cells. Put plainly: Cell viability (CellTiter-Glo ATP content) in A549 cells. The settings on record: Homo sapiens, A549, 72 h, 72 hours treatment, cell survival by CellTiter-Glo, 2% fetal bovine serum. As to the method: (§1) Logarithmically growing A549, LOX and MelJuSo cells (ATCC) were plated in antibiotic-free RPMI medium (Coming) supplemented with 2% fetal bovine serum (Gemini Bio-products) at a density of 5,000 cells per well in clear-bottom 96-well plates. The next day cells were treated (triplicates) with increasing doses of a compound of the present disclosure (dissolved in DMSO) and DMSO vehicle controls (final DMSO concentration of 0.5%) for 72 hours and subsequently assessed for cell viability by measuring ATP content with CellTiter-Glo Luminescent Cell Viability Assay (Promega). Signal intensity was measured on a Glomax™ 96 Microplate Luminometer (Promega) and percent cell survival was calculated based on the reading of vehicle control cells set as 100%.
In general terms: In ATP-based viability assays light output follows the ATP content of the culture.

The subject of assay [2] is LOX cells. Put plainly: Cell viability (CellTiter-Glo ATP content) in LOX cells. The conditions noted are these: LOX, 72 h, 72 hours treatment, cell survival by CellTiter-Glo, 2% fetal bovine serum. The protocol:
as §1

For assay [3], the system named is MelJuSo cells. Put plainly: Cell viability (CellTiter-Glo ATP content) in MelJuSo cells. The conditions noted are these: Homo sapiens, MEL-JUSO, 72 hours treatment, cell survival by CellTiter-Glo, 2% fetal bovine serum. As to the method:
as §1

Take `CCCCC1C(c2ccc(F)cc2)=NN(c2ccc(Cl)cc2F)C1(C)C(=O)NCCOC` (centres unmarked) [Compound 64, 4-butyl-1-(4-chloro-2-fluorophenyl)-3-(4-fluorophenyl)-N-(2-methoxyethyl)-5-methyl-4,5-dihydro-1H-pyrazole-5-carboxamide]: the IC50 in assay [1] was 0.25 to 0.5 µM; in assay [2] it was less than 0.25 µM; in assay [3] it was less than 0.25 µM.
As to `COCCNC(=O)C1(C)C(c2ccc(C)s2)C(c2ccc(F)cc2)=NN1c1ccc(F)cc1F` (centres unmarked) [Compound 100, 1-(2,4-difluorophenyl)-3-(4-fluorophenyl)-N-(2-methoxyethyl)-5-methyl-4-(5-methylthiophen-2-yl)-4,5-dihydro-1H-pyrazole-5-carboxamide], the IC50 in assay [1] is greater than 2 µM; in assay [2], 1 to 2 µM; in assay [3], 0.25 to 0.5 µM.
The matching figures for `CCCCC1C(c2ccc(F)cc2)=NN(c2ccccc2)C1(C)C(=O)NCCCN1CCOCC1` (centres unmarked) [Compound 65, 4-butyl-3-(4-fluorophenyl)-5-methyl-N-(3-morpholinopropyl)-1-phenyl-4,5-dihydro-1H-pyrazole-5-carboxamide]: greater than 2 µM, greater than 2 µM and greater than 2 µM.
Turning to `COC(=O)CNC(=O)C1(C)C(c2ccoc2)C(c2ccc(F)cc2F)=NN1c1ccc(F)cc1F` (centres unmarked) [Compound 131, methyl 2-(1,3-bis(2,4-difluorophenyl)-4-(furan-3-yl)-5-methyl-4,5-dihydro-1H-pyrazole-5-carboxamido)acetate], the results for the IC50 in assay [1], in assay [2] and in assay [3] were 0.5 to 1 µM, 0.5 to 1 µM and 0.25 to 0.5 µM, respectively.
As to `COC(=O)[C@H](C)NC(=O)C1(C)C(c2ccoc2)C(c2ccc(F)cc2F)=NN1c1ccc(F)cc1F` (stereo partly drawn) [Compound 132, (2S)-methyl 2-(1,3-bis(2,4-difluorophenyl)-4-(furan-3-yl)-5-methyl-4,5-dihydro-1H-pyrazole-5-carboxamido)propanoate], the IC50 in assay [1], in assay [2] and in assay [3] was greater than 2 µM throughout.
Regarding `COCCNC(=O)C1(C)C(c2ccsc2)C(c2ccc(F)cc2F)=NN1c1ccc(F)cc1F` (centres unmarked) [Compound 118, 1,3-bis(2,4-difluorophenyl)-N-(2-methoxyethyl)-5-methyl-4-(thiophen-3-yl)-4,5-dihydro-1H-pyrazole-5-carboxamide], the IC50 in assay [1], in assay [2] and in assay [3] was less than 0.25 µM each time.
For `CCCCC1C(c2ccc(F)cc2)=NN(c2ccccc2)C1(C)C(=O)NCc1ccc(O)c(OC)c1` (centres unmarked) [Compound 66, 4-butyl-3-(4-fluorophenyl)-N-(4-hydroxy-3-methoxybenzyl)-5-methyl-1-phenyl-4,5-dihydro-1H-pyrazole-5-carboxamide], the IC50 in assay [1], in assay [2] and in assay [3] was greater than 2 µM in each case.
Take `COC(=O)CNC(=O)C1(C)C(c2ccc(F)cc2F)=NN(c2ccc(F)cc2F)C1c1ccc(Cl)o1` (centres unmarked) [Compound 137, methyl 2-(5-(5-chlorofuran-2-yl)-1,3-bis(2,4-difluorophenyl)-4-methyl-4,5-dihydro-1H-pyrazole-4-carboxamido)acetate]: the IC50 in assay [1] was greater than 2 µM; in assay [2], greater than 2 µM; in assay [3], 0.5 to 1 µM.
For the molecule `CCCCC1C(c2ccc(F)cc2)=NN(c2ccccc2)C1(C)C(=O)NCC(C)CN(C)C` (centres unmarked) [Compound 77, 4-butyl-N-(3-(dimethylamino)-2-methylpropyl)-3-(4-fluorophenyl)-5-methyl-1-phenyl-4,5-dihydro-1H-pyrazole-5-carboxamide], the figures for the IC50 in assay [1], in assay [2] and in assay [3] were 0.25 to 0.5 µM, greater than 2 µM and greater than 2 µM, respectively.
For the molecule `CCCCC1C(c2ccc(F)cc2)=NN(c2ccccc2)C1(C)C(=O)N(C)Cc1cc(OC)cc(OC)c1` (centres unmarked) [Compound 52, 4-butyl-N-(3,5-dimethoxybenzyl)-3-(4-fluorophenyl)-N,5-dimethyl-1-phenyl-4,5-dihydro-1H-pyrazole-5-carboxamide], the IC50 in assay [1], in assay [2] and in assay [3] was greater than 2 µM each time.
For the molecule `CCCCC1C(c2ccc(F)cc2)=NN(c2ccc(F)c(OC)c2)C1(C)C(=O)NCCCC(C)(C)CO` (centres unmarked) [Compound 18, 4-butyl-1-(4-fluoro-3-methoxyphenyl)-3-(4-fluorophenyl)-N-(5-hydroxy-4,4-dimethylpentyl)-5-methyl-4,5-dihydro-1H-pyrazole-5-carboxamide], the IC50 in assay [1], in assay [2] and in assay [3] was greater than 2 µM in each case.
Take `CCCCC1C(c2ccc(F)cc2)=NN(c2ccccc2)C1(C)C(=O)N[C@H](C)c1ccccc1` (stereo partly drawn) [Compound 43, 4-butyl-3-(4-fluorophenyl)-5-methyl-1-phenyl-N-((R)-1-phenylethyl)-4,5-dihydro-1H-pyrazole-5-carboxamide]: the IC50 in assay [1], in assay [2] and in assay [3] was greater than 2 µM in each case.
Consider `CCCCC1C(c2ccc(F)cc2)=NN(c2ccccc2)C1(C)C(=O)NCc1cc(Cl)cc(Cl)c1` (centres unmarked) [Compound 41, 4-butyl-N-(3,5-dichlorobenzyl)-3-(4-fluorophenyl)-5-methyl-1-phenyl-4,5-dihydro-1H-pyrazole-5-carboxamide], for which the results for the IC50 in assay [1], in assay [2] and in assay [3] were greater than 2 µM, greater than 2 µM and 1 to 2 µM, respectively.
Consider `CC1(C(=O)NCCNC(=O)CCCCC2SC[C@@H]3NC(=O)N[C@H]23)C(c2cccs2)C(c2ccc(F)cc2)=NN1c1ccc(F)cc1F` (stereo partly drawn) [Compound 125, 1-(2,4-difluorophenyl)-3-(4-fluorophenyl)-5-methyl-N-(2-(5-((3aS,6aR)-2-oxohexahydro-1H-thieno[3,4-d]imidazol-4-yl)pentanamido)ethyl)-4-(thiophen-2-yl)-4,5-dihydro-1H-pyrazole-5-carboxamide], for which the IC50 in assay [1], in assay [2] and in assay [3] was greater than 2 µM each time.
With `Cn1cc(C2C(c3ccc(F)cc3)=NN(c3ccc(F)cc3F)C2(C)C(=O)NCCCC(C)(C)CO)cn1` (centres unmarked) [Compound 95, 1-(2,4-difluorophenyl)-3-(4-fluorophenyl)-N-(5-hydroxy-4,4-dimethylpentyl)-5-methyl-4-(1-methyl-1H-pyrazol-4-yl)-4,5-dihydro-1H-pyrazole-5-carboxamide], the IC50 in assay [1] and in assay [3] was greater than 2 µM each time.
In the case of `Cn1cccc1C1C(c2ccc(F)cc2)=NN(c2ccc(F)cc2F)C1(C)C(=O)NCCCC(C)(C)CO` (centres unmarked) [Compound 93, 1-(2,4-difluorophenyl)-3-(4-fluorophenyl)-N-(5-hydroxy-4,4-dimethylpentyl)-5-methyl-4-(1-methyl-1H-pyrrol-2-yl)-4,5-dihydro-1H-pyrazole-5-carboxamide], the IC50 in assay [1] and in assay [3] was greater than 2 µM each time.
With `COCCNC(=O)C1(C)C(c2cccn2C)C(c2ccc(F)cc2)=NN1c1ccc(F)cc1F` (centres unmarked) [Compound 94, 1-(2,4-difluorophenyl)-3-(4-fluorophenyl)-N-(2-methoxyethyl)-5-methyl-4-(1-methyl-1H-pyrrol-2-yl)-4,5-dihydro-1H-pyrazole-5-carboxamide], the IC50 in assay [1] and in assay [3] was greater than 2 µM throughout.
On to `COCCNC(=O)C1(C)C(c2cnn(C)c2)C(c2ccc(F)cc2)=NN1c1ccc(F)cc1F` (centres unmarked) [Compound 96, 1-(2,4-difluorophenyl)-3-(4-fluorophenyl)-N-(2-methoxyethyl)-5-methyl-4-(1-methyl-1H-pyrazol-4-yl)-4,5-dihydro-1H-pyrazole-5-carboxamide], for which the IC50 in assay [1] and in assay [3] was greater than 2 µM in each case.

As usually defined, the IC50 is the midpoint of a concentration-inhibition curve. A higher IC50 goes with weaker potency in that assay.
